The text below walks through data of patent publication US7863040B2, “Ready-to-use whole blood collection vessel” (Roche Diagnostics Operations, Inc., priority 2006, dated 2011).

For series [1], the system named is EDTA-anticoagulated whole blood. Briefly: Processing of EDTA-anticoagulated whole blood in a tube with reagent for differential hemolysis (time to optically clear lysate). The series is classed as cell-based. As to the method: This reagent for differential hemolysis thus has a concentration of about 25% BMPBF4. […] 250 microliter of EDTA-anticoagulated whole blood is pipetted into a vial containing 5 milliliter of this lysis reagent. For hemolysis the content of the tube is gently mixed by shaking. An optically clear lysate is obtained within five minutes. The lysate is stored at 4° C. Stability of the lysate is inspected after 1, 4 and 7 days by visual inspection. […] This reagent for differential hemolysis thus has a concentration of about 2% Me-octPCl. 250 microliter of EDTA-anticoagulated whole blood is pipetted into a vial containing 5 milliliter of this lysis reagent. For hemolysis the content of the tube is gently mixed by shaking. An optically clear lysate is obtained within five minutes. The lysate is stored at 4° C. Stability of the lysate is inspected after 1, 4 and 7 days by visual inspection. […] This reagent for differential hemolysis has a concentration of about 15% Me-octPCl. […] For hemolysis the content of the tube is gently mixed by shaking. An optically clear lysate is obtained within five minutes. The lysate is stored at 4° C. Stability of the lysate is inspected after 1, and 2 days by visual inspection. […] This reagent for differential hemolysis has a concentration of about 10% COMPCl. […]

Series [2] deals with erythrocytes. Briefly: Visual evaluation of hemolysis (time until a clear solution is observed). The series is classed as cell-based. As to the method:
Whether the conditions for differential hemolysis are appropriate can be easily and preferably determined by using the following standardized procedure. A whole blood sample with a hematocrit of 40 is diluted 1:10 and then mixed 1:1 with the candidate hemolysis reagent. The efficacy of a reagent for bringing about differential hemolysis is seen visually. Upon lysis of the erythrocytes the mixture becomes clear. If precipitation of sample constituents occurs the sample becomes turbid or viscous or both.
As indicated above, the conditions used in a method of differential hemolysis according to the present invention can easily be assessed visually. If a whole blood sample is incubated with an appropriate candidate reagent for differential hemolysis the minimal concentration required to hemolyze red blood cells can be recognized as the concentration rendering the turbid blood sample transparent or clear. The highest possible concentration is the one still leading to a transparent and non-viscous sample.
(§1) Solution A: Fresh EDTA-stabilized whole blood is diluted with 0.15 molar sodium chloride solution in the ratio 1:10 (50 μL EDTA-blood plus 450 μL sodium chloride solution).
In the case of the addition of a second anion, e.g., iodine (1-Butyl-3-methylpyridiniumchloride/KJ) the stated salt is added in an equimolar amount.
Hemolysate is prepared by mixing solution A and B in equal volumes, e.g., 500 μL solution A plus 500 μL solution B.
After mixing the hemolysate is inspected visually for turbidometry and clearness immediately after mixing, after 1 minute, 2, 5, 6, 7, 20 and 40 minutes. The time until a clear solution is observed is recorded.

For series [3] the following is noted: cited from earlier work.
For series [4] the following is noted: in vivo; cited from earlier work.
Series [5] has as its system erythrocytes. Briefly: Microscopic evaluation of hemolysis, Trypane blue staining. The series is classed as cell-based. The settings on record: 1 in 10 diluted whole blood, reagent 25%. As for the experimental part: The integrity of red blood cells can for example be easily assessed by appropriate life stains. In a preferred embodiment according to the present invention trypane blue is used in order to assess the integrity of a red blood cell membrane. […] The membrane integrity of a red blood cell is easily assessed under the microscope after staining a sample with trypane blue. The percentage of disrupted red blood cells is calculated by counting intact red blood cells before and after the treatment, by then dividing the first number by the latter number and by then multiplying this value by 100. Red blood cells that are solubilized are referred to as lyzed red blood cells or as lyzed erythrocytes.
as §1
Solution B: A solution of the hemolysis reagent in 0.15 molar sodium chloride is prepared where the concentration of the hemolysis reagent is twice as high as the desired final concentration in the hemolysate, e.g., to get a final concentration of 25% of 1-Butyl-4-methylpyridinium tetrafluoroborate a solution of 50% ([…] plus 50 mL 0.15 molar sodium chloride in water) is prepared. […]

Series [6] relates to erythrocytes. Briefly: Microscopic evaluation of hemolysis, May-Grünwald staining. The format is cell-based. As for the experimental part: Solution A: Fresh EDTA-stabilized whole blood is diluted with 0.15 molar sodium chloride solution in the ratio 1:10 (50 μL EDTA-blood plus 450 μL sodium chloride solution). Solution B: […] Hemolysate is prepared by mixing solution A and B in equal volumes, e.g., 20 μL solution A plus 20 μL solution B After mixing of the hemolysate a droplet is smeared on a microscope slide, air dried at room temperature and stained with May-Grünwald staining reagent (Merck Cat. No. 1.01424 May-Grünwald's Eosin Methylene Blue Solution). […] Microscopy is performed by oil immersion light microscopy (magnification ×630).

The mark [7] stands for this setting: final concentration 12.5% (weight/volume).
Where [8] appears, read: final concentration 25% (weight/volume), whole blood final dilution 1:20.

For `CCCCCCCCOC[n+]1cccc(C(N)=O)c1.[Cl-]` [3-Carbamoyl-1-octyloxymethyl pyridiniumchloride], the “time until optically clear lysate is obtained” value in series [1] (50 microliter blood into 130 microliter reagent, about 10% COMPCl) is “five”. The “clear after (min.)” value in series [2] (final concentration 1.5% (weight/volume)), in series [2] (final concentration 6.25% (weight/volume)) and in series [2] (setting [7]) was “immediately” each time.
For `C=CC[C@@H]1/C=C(\C)C[C@H](C)C[C@H](OC)[C@H]2O[C@@](O)(C(=O)C(=O)N3CCCC[C@H]3C(=O)O[C@H](/C(C)=C/[C@@H]3CC[C@@H](O)[C@H](OC)C3)[C@H](C)[C@@H](O)CC1=O)[C@H](C)C[C@@H]2OC` [Tacrolimus, tacrolimus], the “potency relative to cyclosporin in vitro” value in series [3] was “up to 100 times”. In addition, the therapeutic trough concentration in series [4] was 5 to 20 µg/L.
Turning to `CCCC[n+]1ccc(C)cc1.F[B-](F)(F)F` [1-Butyl-4-methylpyridinium tetrafluoroborate], the “time until optically clear lysate is obtained” value in series [1] (250 microliter blood into 5 milliliter reagent, about 25% BMPBF4) is “five”. The “Light microscopy of hemolyzed whole blood, Trypane blue staining” value in series [5] (2.5 min incubation time) is on record as “Only few residual erythrocytes are left”; in series [5] (15 min incubation time), “No erythrocytes or membranes are left”. In addition, the “clear after (min.)” value in series [2] (final concentration 6% (weight/volume)) is recorded as “Turbid”. Besides, the results for the “clear after” value in series [2] (setting [7]) and in series [2] (setting [8]) were 40 min and 20 min, respectively. The “Light microscopy of hemolyzed whole blood, May-Grünwald staining” value in series [6] (1 in 10 diluted whole blood, reagent 25%) is “No erythrocytes or membranes are left, nuclei are still intact”.
On to `CCCCCCCC[n+]1ccccc1.[Cl-]` [N-Octylpyridiniumchloride], for which the “clear after” value in series [2] (setting [8]) stood at 2 min.
For `CO[C@H]1C[C@@H]2CC[C@@H](C)[C@@](O)(O2)C(=O)C(=O)N2CCCC[C@H]2C(=O)O[C@H]([C@H](C)C[C@@H]2CC[C@@H](O)[C@H](OC)C2)CC(=O)[C@H](C)/C=C(\C)[C@@H](O)[C@@H](OC)C(=O)[C@H](C)C[C@H](C)/C=C/C=C/C=C/1C` [sirolimus, rapamycin], in series [4], the therapeutic trough concentration is 5 to 15 µg/L.
For the molecule `CCCCCCCCOS(=O)(=O)[O-].CCCCn1cc[n+](C)c1` [l-Butyl-3-methyl-imidazoliumoctylsulfate, 1-Butyl-3-methyl-imidazoliumoctylsulfate], the “clear after (min.)” value in series [2] (setting [8]) is listed as “immediately”.
As for `COc1c(C)c2c(c(O)c1C/C=C(\C)CCC(=O)OCCN1CCOCC1)C(=O)OC2` [MMF, mycophenolate mofetil], the therapeutic trough concentration in series [4] is 1000 to 3500 µg/L.
As to `O` [water, reference compound], the “Light microscopy of hemolyzed whole blood, May-Grünwald staining” value in series [6] (1 in 10 diluted whole blood hemolyzed with water) is “Erythrocyte membranes and nuclei are visible”.
Turning to `CCCCn1cc[n+](C)c1.F[B-](F)(F)F` [1-Butyl-3-methyl-imidazolium tetrafluoroborate], the “clear after” value in series [2] (setting [8]) worked out at 20 min.
For `CCCCCCCC[N+]1(C)CCCC1.[Cl-]` [1-Methyl-1-octyl pyrrolidiniumchloride], the “clear after (min.)” value in series [2] (final concentration 2.5% (weight/volume)) is given as “turbid”; in series [2] (setting [8]), “immediately”.
With `CCCC[n+]1cccc(C)c1.[Cl-]` [1-Butyl-3-methyl pyridiniumchloride, 1-Butyl-3-methylpyridiniumchloride], in series [2] (setting [8]), the “clear after (min.)” value is “turbid”.
As for `CCCCCC[n+]1ccccc1.[Cl-]` [1-Hexylpyridiniumchloride], in series [2] (setting [7]), the “clear after (min.)” value was “turbid”. In addition, the “clear after” value in series [2] (setting [8]) came to 7 min.
